According to ChEMBL document CHEMBL1146329, “Structure-activity relationship in the 3-iodo-4-phenoxypyridinone (IOPY) series: The nature of the C-3 substituent on anti-HIV activity” (Bioorg Med Chem Lett, 2007):

Key:
[1] = test system: Human immunodeficiency virus 1; assay: Antiviral activity against HIV1 LAI assessed as inhibition of viral-induced cytopathicity in MT4 cells by MTT method; assay type: functional, organism-based; conditions: Human immunodeficiency virus 1, LAI
[2] = Selectivity index, ratio of CC50 for MT4 cells to IC50 for HIV1 LAI; assay type: functional
[3] = test system: Human immunodeficiency virus 1; assay: Antiviral activity against HIV1 with RT 103N mutant assessed as inhibition of viral-induced cytopathicity in MT4 cells by MTT method; assay type: functional, organism-based; conditions: Human immunodeficiency virus 1, MT4
[4] = test system: Human immunodeficiency virus 1; assay: Antiviral activity against HIV1 RT 100I mutant assessed as inhibition of viral-induced cytopathicity in MT4 cells by MTT method; assay type: functional, organism-based; conditions: Human immunodeficiency virus 1, MT4
[5] = test system: Human immunodeficiency virus 1; assay: Antiviral activity against HIV1 RT 188L mutant assessed as inhibition of viral-induced cytopathicity in MT4 cells by MTT method; assay type: functional, organism-based; conditions: Human immunodeficiency virus 1, MT4
[6] = test system: Human immunodeficiency virus 1; assay: Antiviral activity against HIV1 RT 103N/181C mutant assessed as inhibition of viral-induced cytopathicity in MT4 cells by MTT method; assay type: functional, organism-based; conditions: Human immunodeficiency virus 1, MT4
[7] = test system: Human immunodeficiency virus 1; assay: Antiviral activity against HIV1 RT 100I/103N mutant assessed as inhibition of viral-induced cytopathicity in MT4 cells by MTT method; assay type: functional, organism-based; conditions: Human immunodeficiency virus 1, MT4
[8] = test system: Human immunodeficiency virus 1; assay: Antiviral activity against HIV1 RT 181C mutant assessed as inhibition of viral-induced cytopathicity in MT4 cells by MTT method; assay type: functional, organism-based; conditions: Human immunodeficiency virus 1, MT4

CCc1c(C)[nH]c(=O)c([S+](C)[O-])c1Oc1cc(C)cc(C)c1 (stereo unspecified)
IC50 [1]: 15.8 nM | Ratio CC50/IC50 [2]: 6309

CCc1c(C)[nH]c(=O)c(C(=O)N(C)C)c1Oc1cc(C)cc(C)c1
IC50 [1]: 5020 nM

CCc1c(C)[nH]c(=O)c(-c2ccsc2)c1Oc1cc(C)cc(C)c1
IC50 [1]: 50.1 nM

CCc1c(C)[nH]c(=O)c(Sc2ccccc2)c1Oc1cc(C)cc(C)c1
IC50 [1]: 10 nM | Ratio CC50/IC50 [2]: 5012 | IC50 [3]: 794 nM | IC50 [4]: 125 nM | IC50 [5]: 794 nM | IC50 [6]: 1580 nM | IC50 [7]: 1580 nM | IC50 [8]: 158 nM

CCc1c(C)[nH]c(=O)c(OC)c1Oc1cc(C)cc(C)c1
IC50 [1]: 2.5 nM | Ratio CC50/IC50 [2]: 39811 | IC50 [3]: 79.4 nM | IC50 [4]: 31.6 nM | IC50 [5]: 794 nM | IC50 [6]: 501 nM | IC50 [7]: 316 nM | IC50 [8]: 158 nM

O=C1Nc2ccc(Cl)cc2C(C#CC2CC2)(C(F)(F)F)O1 (single isomer, unassigned) [EFAVIRENZ]
IC50 [7]: 1000 nM

CCc1c(Oc2cc(C)cc(C)c2)cc(=O)[nH]c1C
IC50 [1]: 398 nM

CCc1c(C)[nH]c(=O)c(SCCC(N)=O)c1Oc1cc(C)cc(C)c1
IC50 [1]: 12.5 nM | Ratio CC50/IC50 [2]: 1995 | IC50 [3]: 316 nM | IC50 [4]: 158 nM | IC50 [5]: 2510 nM | IC50 [8]: 794 nM

CCc1c(C)[nH]c(=O)c(C#N)c1Oc1cc(C)cc(C)c1
IC50 [1]: 79.4 nM

CCc1c(C)[nH]c(=O)c(Br)c1Oc1cc(C)cc(C)c1
IC50 [1]: 1.99 nM | Ratio CC50/IC50 [2]: 90119 | IC50 [3]: 39.8 nM | IC50 [5]: 631 nM | IC50 [6]: 158 nM | IC50 [7]: 63.1 nM | IC50 [8]: 63.1 nM

C/C=C/c1c(Oc2cc(C)cc(C)c2)c(CC)c(C)[nH]c1=O
IC50 [1]: 39.8 nM

CCc1c(C)[nH]c(=O)c(C2CC2)c1Oc1cc(C)cc(C)c1
IC50 [1]: 6.3 nM | Ratio CC50/IC50 [2]: 1259 | IC50 [3]: 199 nM | IC50 [4]: 39.8 nM | IC50 [5]: 158 nM | IC50 [8]: 158 nM

CCOC(=O)c1c(Oc2cc(C)cc(C)c2)c(CC)c(C)[nH]c1=O
IC50 [1]: 631 nM

CCc1c(C)[nH]c(=O)c(/C=C/I)c1Oc1cc(C)cc(C)c1
IC50 [1]: 100 nM

CCc1c(C)[nH]c(=O)c(C#Cc2ccccc2)c1Oc1cc(C)cc(C)c1
IC50 [1]: 15800 nM

CCc1c(C)[nH]c(=O)c(C(F)(F)F)c1Oc1cc(C)cc(C)c1
IC50 [1]: 3.1 nM | Ratio CC50/IC50 [2]: 12589 | IC50 [3]: 12.5 nM | IC50 [4]: 31.6 nM | IC50 [5]: 199 nM | IC50 [8]: 50.1 nM

CCc1c(C)[nH]c(=O)c(-c2ccco2)c1Oc1cc(C)cc(C)c1
IC50 [1]: 15.8 nM | Ratio CC50/IC50 [2]: 126

CCc1c(C)[nH]c(=O)c(I)c1Oc1cc(C)cc(C)c1
IC50 [1]: 1.25 nM | Ratio CC50/IC50 [2]: 9000 | IC50 [3]: 3.16 nM | IC50 [4]: 6.31 nM | IC50 [5]: 50.1 nM | IC50 [6]: 39.8 nM | IC50 [7]: 19.9 nM | IC50 [8]: 19.9 nM

CCc1c(C)[nH]c(=O)c(SC)c1Oc1cc(C)cc(C)c1
IC50 [1]: 1.99 nM | Ratio CC50/IC50 [2]: 25119 | IC50 [3]: 31.6 nM | IC50 [4]: 19.9 nM | IC50 [5]: 125 nM | IC50 [6]: 31.6 nM | IC50 [7]: 63.1 nM | IC50 [8]: 31.6 nM

CCc1c(C)[nH]c(=O)c(C(C)C)c1Oc1cc(C)cc(C)c1
IC50 [1]: 19.9 nM | Ratio CC50/IC50 [2]: 5012 | IC50 [3]: 39.8 nM | IC50 [4]: 12.5 nM | IC50 [5]: 31.6 nM | IC50 [8]: 39.8 nM

CCc1c(C)[nH]c(=O)c(/C=N/O)c1Oc1cc(C)cc(C)c1
IC50 [1]: 31.6 nM

CCOC(=O)/C=C/c1c(Oc2cc(C)cc(C)c2)c(CC)c(C)[nH]c1=O
IC50 [1]: 6310 nM

CCc1c(C)[nH]c(=O)c(CO)c1Oc1cc(C)cc(C)c1
IC50 [1]: 19.9 nM | Ratio CC50/IC50 [2]: 5012

C=Cc1c(Oc2cc(C)cc(C)c2)c(CC)c(C)[nH]c1=O
IC50 [1]: 3.1 nM | Ratio CC50/IC50 [2]: 6309 | IC50 [3]: 3.1 nM | IC50 [4]: 6.3 nM | IC50 [5]: 12.5 nM | IC50 [6]: 200 nM | IC50 [8]: 19.9 nM

CCSc1c(Oc2cc(C)cc(C)c2)c(CC)c(C)[nH]c1=O
IC50 [1]: 125 nM

CCc1c(C)[nH]c(=O)c(/C=C/CO)c1Oc1cc(C)cc(C)c1
IC50 [1]: 63.1 nM

CCc1c(C)[nH]c(=O)c(Cl)c1Oc1cc(C)cc(C)c1
IC50 [1]: 6.3 nM | Ratio CC50/IC50 [2]: 10000 | IC50 [3]: 19.9 nM | IC50 [4]: 31.6 nM | IC50 [5]: 398 nM | IC50 [8]: 100 nM

CCc1c(C)[nH]c(=O)c(CC)c1Oc1cc(C)cc(C)c1
IC50 [1]: 3.1 nM | Ratio CC50/IC50 [2]: 3162 | IC50 [3]: 39.8 nM | IC50 [4]: 12.5 nM | IC50 [5]: 63.1 nM | IC50 [8]: 39.8 nM
